Measured values taken from ChEMBL document CHEMBL1147507, “Preliminary in vitro studies on two potent, water-soluble trimethoprim analogues with exceptional species selectivity against dihydrofolate reductase from Pneumocystis carinii and Mycobacterium avium” (Bioorg Med Chem Lett, 2004).

Experiments:
[1] = Selectivity index was determined as ratio of IC50 against rat DHFR to that of IC50 against Toxoplasma gondii DHFR
[2] = Selectivity index was determined as ratio of IC50 against rat DHFR to that of IC50 against Pneumocystis carinii DHFR
[3] = Selectivity index was determined as ratio of IC50 against rat DHFR to that of IC50 against Mycobacterium avium DHFR
Dihydrofolate reductase [4] = biological target: T1, Dihydrofolate reductase (Pneumocystis carinii, UniProt P16184)
T1 sequence (P16184 whole entry): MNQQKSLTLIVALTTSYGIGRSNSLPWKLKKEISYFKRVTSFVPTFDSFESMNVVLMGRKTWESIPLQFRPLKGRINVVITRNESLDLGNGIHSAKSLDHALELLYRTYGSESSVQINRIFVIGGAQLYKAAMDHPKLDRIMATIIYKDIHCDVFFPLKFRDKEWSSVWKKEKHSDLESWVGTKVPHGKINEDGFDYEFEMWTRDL
Description: Inhibitory concentration against Pneumocystis carinii dihydrofolate reductase

[5] = biological target: T2, Bifunctional dihydrofolate reductase-thymidylate synthase (Toxoplasma gondii, UniProt Q07422)
T2 sequence (Q07422 whole entry): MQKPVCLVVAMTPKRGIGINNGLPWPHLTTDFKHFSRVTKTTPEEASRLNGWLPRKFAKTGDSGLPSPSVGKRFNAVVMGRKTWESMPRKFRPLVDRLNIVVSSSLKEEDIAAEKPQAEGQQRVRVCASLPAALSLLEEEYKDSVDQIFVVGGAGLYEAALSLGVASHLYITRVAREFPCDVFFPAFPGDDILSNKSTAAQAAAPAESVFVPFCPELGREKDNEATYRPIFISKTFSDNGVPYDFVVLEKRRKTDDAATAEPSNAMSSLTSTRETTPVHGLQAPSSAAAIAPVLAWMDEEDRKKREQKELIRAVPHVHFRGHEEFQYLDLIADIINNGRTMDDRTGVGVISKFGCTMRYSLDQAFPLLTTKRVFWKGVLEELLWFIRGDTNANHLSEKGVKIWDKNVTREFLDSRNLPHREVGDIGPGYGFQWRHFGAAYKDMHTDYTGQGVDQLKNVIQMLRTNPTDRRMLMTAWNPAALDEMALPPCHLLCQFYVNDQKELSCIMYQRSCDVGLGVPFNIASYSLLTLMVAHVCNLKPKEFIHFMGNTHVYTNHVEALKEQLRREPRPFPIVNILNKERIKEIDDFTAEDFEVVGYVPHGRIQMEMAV
Description: Inhibitory concentration against Toxoplasma gondii dihydrofolate reductase

Dihydrofolate reductase [6] = biological target: T3, Dihydrofolate reductase (Mycobacterium avium, UniProt O30463)
T3 sequence (O30463 whole entry): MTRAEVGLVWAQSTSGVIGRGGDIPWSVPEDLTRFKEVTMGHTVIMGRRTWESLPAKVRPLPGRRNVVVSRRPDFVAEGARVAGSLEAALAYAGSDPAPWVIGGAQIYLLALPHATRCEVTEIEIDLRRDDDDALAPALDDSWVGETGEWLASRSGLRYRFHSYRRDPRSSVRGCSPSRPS
Description: Inhibitory concentration against Mycobacterium avium dihydrofolate reductase

Dihydrofolate reductase [7] = biological target: T4, Dihydrofolate reductase (Rattus norvegicus, UniProt Q920D2)
T4 sequence (Q920D2 whole entry): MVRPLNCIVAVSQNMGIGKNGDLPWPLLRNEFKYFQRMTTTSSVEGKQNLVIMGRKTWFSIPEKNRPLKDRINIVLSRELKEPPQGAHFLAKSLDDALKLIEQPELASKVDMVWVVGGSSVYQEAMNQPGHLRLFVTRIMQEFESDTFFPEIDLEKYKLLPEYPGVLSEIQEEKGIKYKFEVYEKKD
Description: Inhibitory activity against rat dihydrofolate reductase

SMILES	Ratio [1]	Ratio [2]	Ratio [3]	IC50 (Dihydrofolate reductase [4]) [µM]	IC50 [5] [µM]	IC50 (Dihydrofolate reductase [6]) [µM]	IC50 (Dihydrofolate reductase [7]) [µM]
COc1ccc(C#Cc2ccc(C(=O)O)cc2)cc1Cc1cnc(N)nc1N	24	6.3	2200				
COc1cc(Cc2cnc(N)nc2N)cc(C#Cc2ccc(C(=O)O)cc2)c1OC	210	73	11000	1.2	0.42	0.0082	88
COc1cc(Cc2cnc(N)nc2N)cc(C#CCCCC(=O)O)c1OC							5
